Source: ChEMBL document CHEMBL3593232, “Ring-substituted 8-hydroxyquinoline-2-carboxanilides as potential antimycobacterial agents” (Bioorg Med Chem, 2015)
In brackets after ≈: the same amount, converted by molar mass.

Tests used:
[1] = tested on: Mycobacterium tuberculosis; test: microbe, parasite or virus in culture; conditions: H37Ra ATCC 25177, 168 h
Description: Antimycobacterial activity against Mycobacterium tuberculosis H37Ra ATCC 25177 assessed as reduction in bacterial growth incubated at 37 degC for 7 days by alamar blue dye based assay

[2] = tested on: Mycobacterium avium complex sp.; assay type: functional; conditions: isolate CIT19/06, 120 h
THP-1 = test: Cytotoxicity against human THP1 cells assessed as reduction in cell viability incubated for 24 hrs by WST1 dye based assay; conditions: THP-1, 24 h
[3] = tested on: Mycobacterium avium subsp. paratuberculosis; assay type: functional; conditions: isolate CIT03, 264 h
[4] = Lipophilicity assessed as capacity factor logK of the compound by HPLC method; assay type: physicochemical
[5] = tested on: Mycobacterium tuberculosis; assay type: functional, H37Ra ATCC 25177

For `O=C(Nc1ccccc1)c1ccc2cccc(O)c2n1`, the MIC90 [1] was 30 µM (≈ 7.93 µg/mL), the MIC90 [2] was 30 µM (≈ 7.93 µg/mL) and the IC50 (THP-1) was over 30 µM. For the same compound, the MIC90 [3] was 30 µM (≈ 7.93 µg/mL) and the “log K” value [4] was 0.76.
Compound `O=C(Nc1ccc(F)cc1)c1ccc2cccc(O)c2n1` has an MIC90 [1] of 53 µM (≈ 15 µg/mL), an MIC90 [2] of 53 µM (≈ 15 µg/mL) and an IC50 (THP-1) of over 30 µM. For the same compound, the MIC90 [3] was 53 µM (≈ 15 µg/mL) and the “log K” value [4] was 0.8598.
In the case of `COc1ccccc1NC(=O)c1ccc2cccc(O)c2n1`, the MIC90 [1] is reported as 27 µM (≈ 7.95 µg/mL), the MIC90 [2] is reported as 51 µM (≈ 15 µg/mL) and the IC50 (THP-1) is reported as over 30 µM. For the same compound, the MIC90 [3] was 51 µM (≈ 15 µg/mL) and the “log K” value [4] was 0.7935.
In the case of `COc1cccc(NC(=O)c2ccc3cccc(O)c3n2)c1`, the MIC90 [1] is reported as 27 µM (≈ 7.95 µg/mL), the MIC90 [2] is reported as 27 µM (≈ 7.95 µg/mL) and the Activity [5] is reported as 30.9%. The IC50 (THP-1) was over 30 µM, the MIC90 [3] was 27 µM (≈ 7.95 µg/mL) and the “log K” value [4] was 0.8164.
In the case of `COc1ccc(NC(=O)c2ccc3cccc(O)c3n2)cc1`, the MIC90 [1] is reported as 849 µM (≈ 250 µg/mL), the MIC90 [2] is reported as 425 µM (≈ 125 µg/mL) and the IC50 (THP-1) is reported as over 30 µM. For the same compound, the MIC90 [3] was 849 µM (≈ 250 µg/mL) and the “log K” value [4] was 0.7129.
Compound `Cc1ccccc1NC(=O)c1ccc2cccc(O)c2n1` has an MIC90 [1] of 29 µM (≈ 8.07 µg/mL), an MIC90 [2] of 54 µM (≈ 15 µg/mL) and an IC50 (THP-1) of over 30 µM. The MIC90 [3] was 29 µM (≈ 8.07 µg/mL) and the “log K” value [4] was 0.6944.
For `Cc1cccc(NC(=O)c2ccc3cccc(O)c3n2)c1`, the MIC90 [1] was 29 µM (≈ 8.07 µg/mL), the MIC90 [2] was 29 µM (≈ 8.07 µg/mL) and the Activity [5] was 66.4%. The IC50 (THP-1) was over 30 µM, the MIC90 [3] was 29 µM (≈ 8.07 µg/mL) and the “log K” value [4] was 0.9686.
With `Cc1ccc(NC(=O)c2ccc3cccc(O)c3n2)cc1` the MIC90 [1] was 29 µM (≈ 8.07 µg/mL), the MIC90 [2] was 54 µM (≈ 15 µg/mL) and the IC50 (THP-1) was over 30 µM. The MIC90 [3] was 29 µM (≈ 8.07 µg/mL) and the “log K” value [4] was 0.9521.
For `O=C(Nc1ccccc1F)c1ccc2cccc(O)c2n1`, the MIC90 [1] was 28 µM (≈ 7.9 µg/mL), the MIC90 [2] was 53 µM (≈ 15 µg/mL) and the Activity [5] was 26.9%. The IC50 (THP-1) was over 30 µM, the MIC90 [3] was 28 µM (≈ 7.9 µg/mL) and the “log K” value [4] was 0.6806.
`O=C(Nc1cccc(F)c1)c1ccc2cccc(O)c2n1` showed an MIC90 [1] of 53 µM (≈ 15 µg/mL), an MIC90 [2] of 53 µM (≈ 15 µg/mL) and an IC50 (THP-1) of over 30 µM. For the same compound, the MIC90 [3] was 53 µM (≈ 15 µg/mL) and the “log K” value [4] was 0.942.
`O=C(Nc1ccccc1Cl)c1ccc2cccc(O)c2n1` showed an MIC90 [1] of 27 µM (≈ 8.07 µg/mL), an MIC90 [2] of 837 µM (≈ 250 µg/mL) and an Activity [5] of 21.4%. The IC50 (THP-1) was over 30 µM, the MIC90 [3] was 27 µM (≈ 8.07 µg/mL) and the “log K” value [4] was 0.9566.
In the case of `O=C(Nc1cccc(Cl)c1)c1ccc2cccc(O)c2n1`, the MIC90 [1] is reported as 50 µM (≈ 14.9 µg/mL), the MIC90 [2] is reported as 50 µM (≈ 14.9 µg/mL) and the IC50 (THP-1) is reported as over 30 µM. The MIC90 [3] was 50 µM (≈ 14.9 µg/mL) and the “log K” value [4] was 1.1718.
For `O=C(Nc1ccc(Cl)cc1)c1ccc2cccc(O)c2n1`, the MIC90 [1] was 837 µM (≈ 250 µg/mL), the MIC90 [2] was 50 µM (≈ 14.9 µg/mL) and the IC50 (THP-1) was over 30 µM. The MIC90 [3] was 837 µM (≈ 250 µg/mL) and the “log K” value [4] was 1.1543.
`O=C(Nc1ccccc1Br)c1ccc2cccc(O)c2n1` showed an MIC90 [1] of 23 µM (≈ 7.89 µg/mL), an MIC90 [2] of 729 µM (≈ 250 µg/mL) and an Activity [5] of 26.9%. For the same compound, the IC50 (THP-1) was over 30 µM, the MIC90 [3] was 23 µM (≈ 7.89 µg/mL) and the “log K” value [4] was 1.0536.
In the case of `O=C(Nc1cccc(Br)c1)c1ccc2cccc(O)c2n1`, the MIC90 [1] is reported as 44 µM (≈ 15.1 µg/mL), the MIC90 [2] is reported as 44 µM (≈ 15.1 µg/mL) and the IC50 (THP-1) is reported as over 30 µM. For the same compound, the MIC90 [3] was 44 µM (≈ 15.1 µg/mL) and the “log K” value [4] was 1.2357.
With `O=C(Nc1ccc(Br)cc1)c1ccc2cccc(O)c2n1` the MIC90 [1] was 729 µM (≈ 250 µg/mL), the MIC90 [2] was 44 µM (≈ 15.1 µg/mL) and the IC50 (THP-1) was over 30 µM. The MIC90 [3] was 729 µM (≈ 250 µg/mL) and the “log K” value [4] was 1.2347.
With `O=C(Nc1ccccc1C(F)(F)F)c1ccc2cccc(O)c2n1` the MIC90 [1] was 24 µM (≈ 7.97 µg/mL), the MIC90 [2] was 752 µM (≈ 250 µg/mL) and the Activity [5] was 53.4%. The IC50 (THP-1) was over 30 µM, the MIC90 [3] was 24 µM (≈ 7.97 µg/mL) and the “log K” value [4] was 0.9147.
For `O=C(Nc1cccc(C(F)(F)F)c1)c1ccc2cccc(O)c2n1`, the MIC90 [1] was 24 µM (≈ 7.97 µg/mL), the MIC90 [2] was 24 µM (≈ 7.97 µg/mL) and the Activity [5] was 18.8%. The IC50 (THP-1) was over 30 µM, the MIC90 [3] was 24 µM (≈ 7.97 µg/mL) and the “log K” value [4] was 1.3206.
`O=C(Nc1ccc(C(F)(F)F)cc1)c1ccc2cccc(O)c2n1` gave an MIC90 [1] of 24 µM (≈ 7.97 µg/mL), an MIC90 [2] of 24 µM (≈ 7.97 µg/mL) and an Activity [5] of 33.1%. The IC50 (THP-1) was over 30 µM, the MIC90 [3] was 24 µM (≈ 7.97 µg/mL) and the “log K” value [4] was 1.3653.
With `O=C(Nc1ccccc1[N+](=O)[O-])c1ccc2cccc(O)c2n1` the MIC90 [1] was 97 µM (≈ 30 µg/mL), the MIC90 [2] was 808 µM (≈ 250 µg/mL) and the IC50 (THP-1) was over 30 µM. For the same compound, the MIC90 [3] was 97 µM (≈ 30 µg/mL) and the “log K” value [4] was 1.1277.
Compound `O=C(Nc1cccc([N+](=O)[O-])c1)c1ccc2cccc(O)c2n1` has an MIC90 [1] of 26 µM (≈ 8.04 µg/mL), an MIC90 [2] of 808 µM (≈ 250 µg/mL) and an Activity [5] of 7%. The IC50 (THP-1) was over 30 µM, the MIC90 [3] was 808 µM (≈ 250 µg/mL) and the “log K” value [4] was 0.9845.
For `O=C(Nc1ccc([N+](=O)[O-])cc1)c1ccc2cccc(O)c2n1`, the MIC90 [1] was 26 µM (≈ 8.04 µg/mL), the MIC90 [2] was 808 µM (≈ 250 µg/mL) and the Activity [5] was 17.3%. The IC50 (THP-1) was over 30 µM, the MIC90 [3] was 404 µM (≈ 125 µg/mL) and the “log K” value [4] was 1.0495.
For `CO[C@H]1/C=C/O[C@@]2(C)Oc3c(C)c(O)c4c(O)c(c(/C=N/N5CCN(C)CC5)c(O)c4c3C2=O)NC(=O)/C(C)=C\C=C\[C@H](C)[C@H](O)[C@@H](C)[C@@H](O)[C@@H](C)[C@H](OC(C)=O)[C@@H]1C` [RIFAMPIN], the MIC90 [1] was 10 µM (≈ 8.23 µg/mL), the MIC90 [2] was 10 µM (≈ 8.23 µg/mL) and the MIC90 [3] was 109 µM (≈ 89.7 µg/mL).
